Reference: the supplement of paper PMC10307832

Experiments:
Test in all cases: relative viability (nuclei count vs DMSO), 5 days (fraction); higher = more cells survive
Etoposide + Palbociclib = compound: COc1cc([C@@H]2c3cc4c(cc3[C@@H](O[C@@H]3O[C@@H]5CO[C@@H](C)O[C@H]5[C@H](O)[C@H]3O)[C@H]3COC(=O)[C@H]23)OCO4)cc(OC)c1O [Etoposide] + CC(=O)c1c(C)c2cnc(Nc3ccc(N4CCNCC4)cn3)nc2n(C2CCCC2)c1=O [Palbociclib] (partner 0.5 µM)
Outline: (§1)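 Values are medians from duplicate plates. Each reflects relative viability, defined as the nuclei count of treated wells over that of vehicle wells. Lung cancer cell lines in 1536-well plates were pin-tool dosed one day after seeding with one drug alone or with a fixed anchor-drug dose plus five library-drug doses (not always all listed) in √10 steps, then fixed, stained and imaged at 4× after 5 days.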

Etoposide + AZD7762 = compound: COc1cc([C@@H]2c3cc4c(cc3[C@@H](O[C@@H]3O[C@@H]5CO[C@@H](C)O[C@H]5[C@H](O)[C@H]3O)[C@H]3COC(=O)[C@H]23)OCO4)cc(OC)c1O [Etoposide] + NC(=O)Nc1cc(-c2cccc(F)c2)sc1C(=O)N[C@H]1CCCNC1 [AZD7762] (partner 0.2 µM)
Outline: as §1

Etoposide + Bortezomib = compound: COc1cc([C@@H]2c3cc4c(cc3[C@@H](O[C@@H]3O[C@@H]5CO[C@@H](C)O[C@H]5[C@H](O)[C@H]3O)[C@H]3COC(=O)[C@H]23)OCO4)cc(OC)c1O [Etoposide] + CC(C)C[C@H](NC(=O)[C@H](Cc1ccccc1)NC(=O)c1cnccn1)B(O)O [Bortezomib] (partner 0.002 µM)
Outline: as §1

Bleomycin + Alpelisib = compound: CC1=C(N=C(N=C1N)[C@H](CC(=O)N)NC[C@@H](C(=O)N)N)C(=O)N[C@@H]([C@H](C2=CN=CN2)OC3C(C(C(C(O3)CO)O)O)OC4C(C(C(C(O4)CO)O)OC(=O)N)O)C(=O)N[C@H](C)[C@H]([C@H](C)C(=O)N[C@@H]([C@@H](C)O)C(=O)NCCC5=NC(=CS5)C6=NC(=CS6)C(=O)NCCC[S+](C)C)O [Bleomycin] + Cc1nc(NC(=O)N2CCC[C@H]2C(N)=O)sc1-c1ccnc(C(C)(C)C(F)(F)F)c1 [Alpelisib] (partner 2 µM); settings: main component drawn
Outline: as §1

Cell Line	relative viability (Etoposide + Palbociclib; first compound 0.01 µM)	relative viability (Etoposide + Palbociclib; first compound 0.03162 µM)	relative viability (Etoposide + Palbociclib; first compound 0.1 µM)	relative viability (Etoposide + Palbociclib; first compound 0.3162 µM)	relative viability (Etoposide + Palbociclib; first compound 1 µM)	relative viability (Etoposide + AZD7762; first compound 0.01 µM)	relative viability (Etoposide + AZD7762; first compound 0.03162 µM)	relative viability (Etoposide + AZD7762; first compound 0.1 µM)	relative viability (Etoposide + AZD7762; first compound 0.3162 µM)	relative viability (Etoposide + AZD7762; first compound 1 µM)	relative viability (Etoposide + Bortezomib; first compound 0.01 µM)	relative viability (Etoposide + Bortezomib; first compound 0.03162 µM)	relative viability (Etoposide + Bortezomib; first compound 0.1 µM)	relative viability (Etoposide + Bortezomib; first compound 0.3162 µM)	relative viability (Etoposide + Bortezomib; first compound 1 µM)	relative viability (Bleomycin + Alpelisib; first compound 0.01 µM)	relative viability (Bleomycin + Alpelisib; first compound 0.03162 µM)	relative viability (Bleomycin + Alpelisib; first compound 0.1 µM)	relative viability (Bleomycin + Alpelisib; first compound 0.3162 µM)	relative viability (Bleomycin + Alpelisib; first compound 1 µM)
NCI-H2342	0.463	0.542	0.423	0.425	0.331	0.573	0.441	0.337	0.433	0.4										
ChaGo-K-1	0.929	0.952	0.682	0.289	0.222	0.859	0.863	0.863	0.69	0.302	1.16	0.94	0.679	0.337	0.282					
NCI-H661	0.415	0.468	0.332	0.384	0.352						0.735	0.828	0.531	0.543	0.276	0.439	0.66	0.411	0.247	0.196
COR-L23	0.23	0.27	0.27	0.261	0.146						0.962	0.937	0.804	0.693	0.342	0.516	0.495	0.262	0.0744	0.0882
COR-L 105	0.423	0.41	0.383	0.394	0.366						0.613	1.23	0.502	0.7	0.495	0.95	0.949	0.794	0.413	0.317
LK-2	0.618	0.588	0.451	0.412	0.275	0.395	0.659	0.255	0.319	0.2						0.579	0.505	0.478	0.282	0.251
NCI-H2023	0.312	0.201	0.351	0.201	0.173						0.975	1.15	0.456	0.46	0.123	0.403	0.536	0.325	0.149	0.101
NCI-H1944	0.315	0.358	0.233	0.231	0.198	0.577	0.639	0.276	0.377	0.235						0.627	0.518	0.506	0.288	0.179
NCI-H1793		0.321	0.2	0.305	0.29		0.548	0.282	0.474	0.196						0.695	0.783	0.612	0.171	0.176
NCI-H596						0.923	1.21	0.662	1.3	0.705	0.798	1.1		0.968	0.977	0.377	0.686	0.395	0.259	0.269
